Read-outs that look alike come from different tables or passages of the source.
Tests used:
Puccinia triticina = test: Wheat brown rust (PUCCRT), disease control on wheat seedlings; type: in vivo; details: high volume application at 100 ppm
Experimental: Technical grades of materials were dissolved in acetone, which were then mixed with nine volumes of water containing 110 ppm Triton X-100. The fungicide solutions were applied onto wheat seedlings using an automated booth sprayer to run-off. All sprayed plants were allowed to air dry prior to further handling. All fungicides were evaluated using the aforementioned method for their activity vs. all target diseases, unless stated otherwise. Wheat leaf blotch and brown rust activity were also evaluated using track spray applications, in which case the fungicides were formulated as EC formulations, containing 0.1% Trycol 5941 in the spray solutions. Wheat plants (variety Yuma) were grown from seed in a greenhouse in 50% mineral soil/50% soil-less Metro mix until the first leaf was fully emerged, with 7-10 seedlings per pot. These plants were inoculated with an aqueous spore suspension of Puccinia triticina either prior to or after fungicide treatments. After inoculation the plants were kept in a dark dew room at 22° C. with 100% relative humidity overnight to permit spores to germinate and infect the leaf. The plants were then transferred to a greenhouse set at 24° C. for disease to develop. Fungicide formulation, application and disease assessment followed the procedures as described in the Example A.

Zymoseptoria tritici = test: Leaf blotch of wheat (SEPTTR), disease control on wheat seedlings; type: in vivo; details: high volume application at 100 ppm
Experimental: Technical grades of materials were dissolved in acetone, which were then mixed with nine volumes of water containing 110 ppm Triton X-100. The fungicide solutions were applied onto wheat seedlings using an automated booth sprayer to run-off. All sprayed plants were allowed to air dry prior to further handling. All fungicides were evaluated using the aforementioned method for their activity vs. all target diseases, unless stated otherwise. Wheat leaf blotch and brown rust activity were also evaluated using track spray applications, in which case the fungicides were formulated as EC formulations, containing 0.1% Trycol 5941 in the spray solutions. Wheat plants (variety Yuma) were grown from seed in a greenhouse in 50% mineral soil/50% soil-less Metro mix until the first leaf was fully emerged, with 7-10 seedlings per pot. These plants were inoculated with an aqueous spore suspension of Zymoseptoria tritici either prior to or after fungicide treatments. After inoculation the plants were kept in 100% relative humidity (one day in a dark dew chamber followed by two to three days in a lighted dew chamber at 20° C.) to permit spores to germinate and infect the leaf. The plants were then transferred to a greenhouse set at 20° C. for disease to develop. When disease symptoms were fully expressed on the 1st leaves of untreated plants, infection levels were assessed on a scale of 0 to 100 percent disease severity. Percent disease control was calculated using the ratio of disease severity on treated plants relative to untreated plants.

[1] = 24 h, 1 Day Protectant, read-out: PUCCRT disease control, 1DP, HV activity
[2] = 72 h, 3 Day Curative, read-out: PUCCRT disease control, 3DC, HV activity
[3] = 24 h, 1 Day Protectant, read-out: SEPTTR disease control, 1DP, HV activity
[4] = 72 h, 3 Day Curative, read-out: SEPTTR disease control, 3DC, HV activity

Row | SMILES | pest or weed control at 100 ppm (Puccinia triticina; [1]) [%] | pest or weed control at 100 ppm (Puccinia triticina; [2]) [%] | pest or weed control at 100 ppm (Zymoseptoria tritici; [3]) [%] | pest or weed control at 100 ppm (Zymoseptoria tritici; [4]) [%]
1 | COc1ccnc(C(=O)N[C@@H](C)C(=O)O[C@@H](C)[C@@H](c2ccccc2)C(C)C)c1O [Compound 105] | > 80 | < 0 | < 80 | < 80
2 | COc1ccnc(C(=O)N[C@@H](C)C(=O)O[C@@H](C)[C@@H](c2ccccc2)C2CCCC2)c1O [Compound 106] | < 80 | < 0 | < 0 | < 0
3 | CCC(CC)[C@@H](c1ccccc1)C(C)OC(=O)[C@H](C)NC(=O)c1nccc(OC)c1O (stereo partly drawn) [Compound 112] | > 80 | > 80 | > 80 | > 80
4 | COc1ccnc(C(=O)N[C@@H](C)C(=O)OC(C)[C@H](c2ccccc2)C2CCCC2)c1O (stereo partly drawn) [Compound 113] | > 80 | > 80 | > 80 | > 80
5 | COc1ccnc(C(=S)N[C@@H](C)C(=O)OC(C)[C@H](c2ccccc2)C2CCCC2)c1O (stereo partly drawn) [Compound 114] | > 80 | < 80 | > 80 | < 80
6 | COc1ccnc(C(=S)N[C@@H](C)C(=O)O[C@@H](C)[C@@H](c2ccccc2)C2CCCC2)c1O [Compound 115] | < 0 | < 0 | < 80 | < 0
7 | COc1ccnc(C(=O)N[C@@H](C)C(=O)O[C@@H](C)[C@@H](c2ccc(F)cc2C)C(C)C)c1O [Compound 116] | > 80 | < 0 | < 0 | < 80
8 | CCC(CC)[C@H](c1ccc(F)cc1C)[C@H](C)OC(=O)[C@H](C)NC(=O)c1nccc(OC)c1O [Compound 117] | > 80 | < 0 | > 80 | > 80
9 | COc1ccnc(C(=O)N[C@@H](C)C(=O)O[C@@H](C)[C@@H](c2ccc(F)cc2C)C2CCCC2)c1O [Compound 118] | > 80 | < 80 | < 80 | < 80
10 | COc1ccnc(C(=O)N[C@@H](C)C(=O)O[C@@H](C)[C@@H](c2ccc(F)cc2C)C2CCCCC2)c1O [Compound 119] | > 80 | < 80 | > 80 | > 80
11 | CCC(C)[C@H](c1ccc(F)cc1C)[C@H](C)OC(=O)[C@H](C)NC(=O)c1nccc(OC)c1O (stereo partly drawn) [Compound 120] | > 80 | < 0 | < 0 | < 80
12 | COc1ccnc(C(=O)N[C@@H](C)C(=O)O[C@@H](C)[C@@H](c2ccc(F)cc2C)C2CCC2)c1O [Compound 121] | > 80 | < 80 | < 80 | > 80
13 | COc1ccnc(C(=O)N[C@@H](C)C(=O)O[C@@H](C)[C@H](c2ccc(F)cc2C)C2CCCC2)c1O [Compound 122] | > 80 | > 80 | > 80 | < 80
14 | COc1ccnc(C(=O)N[C@@H](C)C(=O)O[C@@H](C)[C@H](c2ccc(F)cc2C)C2CCCCC2)c1O [Compound 123] | > 80 | > 80 | > 80 | > 80
15 | COc1ccnc(C(=O)N[C@@H](C)C(=O)O[C@@H](C)[C@H](c2ccc(F)cc2C)C(C)C)c1O [Compound 124] | > 80 | > 80 | > 80 | > 80
16 | CCC(CC)[C@@H](c1ccc(F)cc1C)[C@H](C)OC(=O)[C@H](C)NC(=O)c1nccc(OC)c1O [Compound 125] | > 80 | < 80 | > 80 | > 80
17 | CCC(C)[C@@H](c1ccc(F)cc1C)[C@H](C)OC(=O)[C@H](C)NC(=O)c1nccc(OC)c1O (stereo partly drawn) [Compound 126] | > 80 | < 80 | > 80 | > 80
18 | COc1ccnc(C(=O)N[C@@H](C)C(=O)O[C@@H](C)[C@H](c2ccc(F)cc2C)C2CCC2)c1O [Compound 127] | > 80 | > 80 | > 80 | < 80
19 | COc1ccnc(C(=O)N[C@@H](C)C(=O)O[C@H](C)[C@H](c2ccc(F)cc2C)C2CCCC2)c1O [Compound 128] | < 80 | < 0 | < 0 | < 80
20 | COc1ccnc(C(=O)N[C@@H](C)C(=O)O[C@H](C)[C@H](c2ccc(F)cc2C)C2CCCCC2)c1O [Compound 129] | > 80 | < 0 | > 80 | < 80
21 | COc1ccnc(C(=O)N[C@@H](C)C(=O)O[C@H](C)[C@H](c2ccc(F)cc2C)C(C)C)c1O [Compound 130] | > 80 | < 80 | < 80 | < 80
22 | COc1ccnc(C(=O)N[C@@H](C)C(=O)O[C@@H](C)[C@@H](c2ccc(C)cc2C)C(C)C)c1O [Compound 131] | > 80 | > 80 | < 80 | < 80
23 | COc1ccnc(C(=O)N[C@@H](C)C(=O)O[C@@H](C)[C@@H](c2ccc(C)cc2C)C2CCCC2)c1O [Compound 132] | > 80 | > 80 | > 80 | < 80
24 | COc1ccnc(C(=O)N[C@@H](C)C(=O)O[C@@H](C)[C@@H](c2ccc(C)cc2C)C2CCCCC2)c1O [Compound 133] | > 80 | < 80 | > 80 | < 80
25 | CCC(C)[C@H](c1ccc(C)cc1C)[C@H](C)OC(=O)[C@H](C)NC(=O)c1nccc(OC)c1O (stereo partly drawn) [Compound 134] | < 80 | < 80 | < 80 | < 80
26 | COc1ccnc(C(=O)N[C@@H](C)C(=O)O[C@@H](C)[C@H](c2ccc(F)cc2)C(C)C)c1O [Compound 135] | < 80 | > 80 | < 80 | > 80
27 | COc1ccnc(C(=S)N[C@@H](C)C(=O)O[C@@H](C)[C@H](c2ccc(F)cc2C)C(C)C)c1O [Compound 136] | > 80 | > 80 | > 80 | > 80

— patent publication US20180186742A1, “PICOLINAMIDES AS FUNGICIDES” (Dow AgroSciences LLC, priority 2017, published 2018)
